Laboratory results: patent US20180028473A1, “NUTRIENTS SOLUTIONS” (Mitochondrial Substrate Invention Ltd., priority 2014, published 2018)

Assays:
[1] = tested on: Cognitively healthy young adult male Wistar rats; assay: Passive avoidance test, scopolamine given 7 days after end of supplementation; format: in vivo, rat
Protocol: Cognitively healthy young adult male Wistar rats weighing 260-280 g were randomly ascribed to groups and supplemented daily with aqueous solution of 5 mg/kg of compound of formula (I) in water of the invention for seven consecutive days. Then, after the break in the supplementation for next seven days, scopolamine 1 mg/kg i.p. or vehicle was administered (at day 14) 30 min before the acquisition trial in the passive avoidance test (“Compound (I)+Scopolamine” group). In “Vehicle+Vehicle” group, rats received vehicle for seven consecutive days and then vehicle 30 min before the acquisition trial in the passive avoidance test at 14th day. In “Vehicle+Scopolamine” group, rats received vehicle for seven consecutive days and then scopolamine 1 mg/kg i.p. 30 min before the acquisition trial in the passive avoidance test at 14th day. […] Passive avoidance test requires the rats to behave contrary to their innate tendencies for preference of dark areas and avoidance of bright ones. The apparatus used in this test is composed by a dark compartment and a bright compartment. The latency to enter the dark chamber was measured using 300 s maximum trial duration. In the acquisition trial, the animal received a 0.4 mA electric shock for 3 s when entering the dark chamber. Retention trial was performed 24 h after the acquisition trial. […]

[2] = in vivo; cited from earlier work

C[N+](C)(C)CCO [compound of formula (I), choline succinate (2:1)]
Relative risk of disturbance of cognitive function ([1]; as compared to Vehicle+Scopolamine group): 0.51
Rate of disturbance of cognitive function (latency <207 s) ([1]; retention trial, scopolamine 1 mg/kg i.p.): 0.36
elimination half-life [2]: less than 1.2 h
